Experimental data as given in US8933039B2 (NPS Pharmaceuticals, Inc., priority 1995, dated 2015).
Non-standard residues stand in square brackets, D forms with d. Residues, ends and D or L forms follow the SMILES beside them. Phg = N[C@H](C(=O)O)c1ccccc1; Nva = CCC[C@H](N)C(=O)O

Assays:
CD1 mice = experiment: Intestinotrophic activity assessment: small bowel weight in mice; type: in vivo; conditions: for % Increase in small bowel weight: CD1 mice, 2.5 μg peptide s.c. b.i.d. in PBS, sacrificed 10 or 14 days, relative to vehicle only; for % Activity (small bowel inducing activity relative to native rat GLP-2(1-33) = 100%): mice, as Example 4
Description: Recipients were CD1 mice obtained from Charles River Laboratory (Ontario, Canada). The CD1 mice were aged-matched females at time of injection (n=3-4 per group), 6 weeks of age, unless otherwise specified. The animals were allowed a minimum of 24 hours to acclimatize to the laboratory facility before the initiation of each experiment. Animals were identified by ear punch. The mice were not restricted by diet or activity during the experiments. The light/dark cycle was 12 hours, between 6 pm to 6 am. Controls were age- and sex-matched (n=3-4) animals. Mice were injected subcutaneously, twice a day (b.i.d.), with 2.5 μg peptide in a total volume of 0.5 cc of PBS and were monitored daily in the laboratory facility. Animals were sacrificed 10 or 14 days after injection, and were fasted at least 20 hours before sacrifice.
The mice were anaesthetised with CO2 and exsanguinated by cardiac puncture. Blood was collected in 75 μl of TED (Trasysol; EDTA (5000 KIU/ml: 1.2 mg/ml; Diprotin-A), and the blood was centrifuged at 14 k×g for 5 minutes and the plasma was stored at −70 prior to analysis. The small bowel was removed from the peritoneal cavity, from pylorus to cecum, cleaned weighed and measured. For comparative purpose, sections from each animal were obtained from the identical anatomical position. Fragments each measuring 1.5-2.0 cm in length were obtained 8±2 cm, 18±2 cm, 32±2 cm from pylorus for histomorphometry representing proximal jejunum, distal jejunum and distal ileum. Each small bowel fragment was opened longitudinally on its antimesenteric border in a tissue block and then placed on 10% formalin (vol./vol.) overnight, then transferred to 70% […].
Percentage change in small bowel weight was calculated by dividing the mean change in bowel weight of analog treated mice, relative to mice treated with vehicle only, by the mean bowel weight of mice treated with vehicle only, and multiplying this figure by 100.
Experiments assessing the small bowel inducing activity of various analogs was repeated as described above for Example 4. In these experiments, the small bowel inducing activity of each analog in mice was calculated relative to that of native rat GLP-2(1-33) (expressed as 100% of activity). Resistance of analogs to DPP-IV cleavage was performed as described above in Example 3.

DPP-IV = DPP-IV (Homo sapiens, UniProt P27487); experiment: Assay for resistance to dipeptidyl peptidase IV (RP-HPLC of cleavage product); conditions: human, isolated human placental DPP-IV (dipeptidyl peptidase IV), pH 7.4, % Cleaved by DPP-IV, as Example 3: human placental DPP-IV, 37° C., PBS pH 7.4
DPP-IV, sequence (P27487 whole entry): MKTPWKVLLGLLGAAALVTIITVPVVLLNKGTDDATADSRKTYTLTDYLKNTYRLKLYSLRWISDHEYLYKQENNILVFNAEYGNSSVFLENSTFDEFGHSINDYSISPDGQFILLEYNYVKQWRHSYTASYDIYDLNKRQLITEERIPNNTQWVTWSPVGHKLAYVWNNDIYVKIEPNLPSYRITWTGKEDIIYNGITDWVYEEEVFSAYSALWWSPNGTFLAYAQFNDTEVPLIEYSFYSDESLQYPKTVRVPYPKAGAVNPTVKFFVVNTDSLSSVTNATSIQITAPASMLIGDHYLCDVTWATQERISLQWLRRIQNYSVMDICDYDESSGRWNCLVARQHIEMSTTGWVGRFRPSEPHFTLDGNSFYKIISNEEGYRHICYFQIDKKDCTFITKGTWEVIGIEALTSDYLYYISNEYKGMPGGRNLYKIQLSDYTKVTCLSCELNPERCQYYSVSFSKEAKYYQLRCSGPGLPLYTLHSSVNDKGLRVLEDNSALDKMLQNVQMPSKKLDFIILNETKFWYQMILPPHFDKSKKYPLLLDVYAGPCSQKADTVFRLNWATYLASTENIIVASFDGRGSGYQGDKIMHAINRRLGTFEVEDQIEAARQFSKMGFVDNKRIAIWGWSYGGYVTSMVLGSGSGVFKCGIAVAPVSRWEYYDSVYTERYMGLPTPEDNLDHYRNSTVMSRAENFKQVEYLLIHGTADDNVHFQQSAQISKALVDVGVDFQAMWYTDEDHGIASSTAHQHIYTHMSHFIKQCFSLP

metabolised at 24 h, 0.19 mg/ml (DPP-IV) [%] | Molecule | % Increase in small bowel weight (CD1 mice) [%] | % Activity (small bowel inducing activity relative to native rat GLP-2(1-33) = 100%) (CD1 mice) [%]
0 | CC[C@H](C)[C@H](NC(=O)[C@H](Cc1ccccc1)NC(=O)[C@H](CC(=O)O)NC(=O)[C@H](CCCNC(=N)N)NC(=O)[C@H](C)NC(=O)[C@H](C)NC(=O)[C@H](CC(C)C)NC(=O)[C@H](CC(N)=O)NC(=O)[C@H](CC(=O)O)NC(=O)[C@H](CC(C)C)NC(=O)[C@@H](NC(=O)[C@@H](NC(=O)[C@H](CC(N)=O)NC(=O)[C@H](CCSC)NC(=O)[C@H](CCC(=O)O)NC(=O)[C@H](CC(=O)O)NC(=O)[C@H](CO)NC(=O)[C@H](Cc1ccccc1)NC(=O)[C@H](CO)NC(=O)CNC(=O)[C@H](CC(=O)O)NC(=O)CNC(=O)[C@@H](N)Cc1c[nH]cn1)[C@@H](C)O)[C@@H](C)CC)C(=O)N[C@@H](CC(N)=O)C(=O)N[C@@H](Cc1c[nH]c2ccccc12)C(=O)N[C@@H](CC(C)C)C(=O)N[C@H](C(=O)N[C@@H](CCC(N)=O)C(=O)N[C@H](C(=O)N[C@@H](CCCCN)C(=O)N[C@H](C(=O)N[C@H](C(=O)N[C@@H](CC(=O)O)C(=O)N[C@@H](CCCNC(=N)N)C(=O)O)[C@@H](C)O)[C@@H](C)CC)[C@@H](C)O)[C@@H](C)CC [[Gly2, Arg34]hGLP-2(1-34)] | – | ~250
100 | H-YADGSFSDEMNTILDNLATRDFINWLIQTKITD-OH [[Tyr1]ratGLP-2(1-33)] | 37 | 81
0 | H-RHADGSFSDEMNTILDNLATRDFINWLIQTKITD-OH [[Arg-l]ratGLP-2(-1-33)] | – | 11
13 | H-HVDGSFSDEMNTILDNLAARDFINWLIQTKITD-OH [[Val2]hGLP-2(1-33)] | – | 180
59 | H-HADGSFSDEMNTILDNLAARDFINWLIQTRITD-OH [[Arg30]hGLP-2(1-33)] | – | 103
0 | H-HKDGSFSDEMNTILDNLAARDFINWLIQTKITD-OH [[Lys2]hGLP-2(1-33)] | – | 90
0 | CC[C@H](C)[C@H](NC(=O)[C@H](Cc1ccccc1)NC(=O)[C@H](CC(=O)O)NC(=O)[C@H](CCCNC(=N)N)NC(=O)[C@H](C)NC(=O)[C@H](C)NC(=O)[C@H](CC(C)C)NC(=O)[C@H](CC(N)=O)NC(=O)[C@H](CC(=O)O)NC(=O)[C@H](CC(C)C)NC(=O)[C@@H](NC(=O)[C@@H](NC(=O)[C@H](CC(N)=O)NC(=O)[C@H](CCSC)NC(=O)[C@H](CCC(=O)O)NC(=O)[C@H](CC(=O)O)NC(=O)[C@H](CO)NC(=O)[C@H](Cc1ccccc1)NC(=O)[C@H](CO)NC(=O)CNC(=O)[C@H](CC(=O)O)NC(=O)CNC(=O)[C@@H](N)Cc1c[nH]cn1)[C@@H](C)O)[C@@H](C)CC)C(=O)N[C@@H](CC(N)=O)C(=O)N[C@@H](Cc1c[nH]c2ccccc12)C(=O)N[C@@H](CC(C)C)C(=O)N[C@H](C(=O)N[C@@H](CCC(N)=O)C(=O)N[C@H](C(=O)N[C@@H](CCCCN)C(=O)N[C@H](C(=O)N[C@H](C(=O)N[C@@H](CC(=O)O)C(=O)N[C@@H](Cc1ccc(O)cc1)C(=O)O)[C@@H](C)O)[C@@H](C)CC)[C@@H](C)O)[C@@H](C)CC [[Gly2, Tyr34]hGLP-2(1-34)] | – | 297

The remaining lines, values behind:

Molecule | metabolised at 24 h, 0.19 mg/ml (DPP-IV) [%] | % Increase in small bowel weight (CD1 mice) [%] | % Activity (small bowel inducing activity relative to native rat GLP-2(1-33) = 100%) (CD1 mice) [%]
H-HADASFSDEMNTILDNLATRDFINWLIQTKITD-OH [[Ala4]ratGLP-2(1-33)] | 72 | 30 | 59
H-HMDGSFSDEMNTILDNLAARDFINWLIQTKITD-OH [[Met2]hGLP-2(1-33)] | 0 | – | 170
H-DADGSFSDEMNTILDNLAARDFINWLIQTKITD-OH [[Asp1]hGLP-2(1-33)] | 0 | – | 60
H-HPDGSFSDEMNTILDNLAARDFINWLIQTKITD-OH [[Pro2]hGLP-2(1-33)] | 16 | – | 50
CC[C@H](C)[C@H](NC(=O)[C@H](Cc1ccccc1)NC(=O)[C@H](CC(=O)O)NC(=O)[C@H](CCCNC(=N)N)NC(=O)[C@H](C)NC(=O)[C@H](C)NC(=O)[C@H](CC(C)C)NC(=O)[C@H](CC(N)=O)NC(=O)[C@H](CC(=O)O)NC(=O)[C@H](CC(C)C)NC(=O)[C@@H](NC(=O)[C@@H](NC(=O)[C@H](CC(N)=O)NC(=O)[C@H](CCSC)NC(=O)[C@H](CCC(=O)O)NC(=O)[C@H](CC(=O)O)NC(=O)[C@H](CO)NC(=O)[C@H](Cc1ccccc1)NC(=O)[C@H](CO)NC(=O)CNC(=O)[C@H](CC(=O)O)NC(=O)[C@@H](NC(=O)[C@@H](N)Cc1c[nH]cn1)c1ccccc1)[C@@H](C)O)[C@@H](C)CC)C(=O)N[C@@H](CC(N)=O)C(=O)N[C@@H](Cc1c[nH]c2ccccc12)C(=O)N[C@@H](CC(C)C)C(=O)N[C@H](C(=O)N[C@@H](CCC(N)=O)C(=O)N[C@H](C(=O)N[C@@H](CCCCN)C(=O)N[C@H](C(=O)N[C@H](C(=O)N[C@@H](CC(=O)O)C(=O)O)[C@@H](C)O)[C@@H](C)CC)[C@@H](C)O)[C@@H](C)CC [[PhGly2]hGLP-2(1-33)] (H-H[Phg]DGSFSDEMNTILDNLAARDFINWLIQTKITD-OH) | 0 | – | 37
H-HGAGSFSDEMNTILDNLAARDFINWLIQTKITD-OH [[Gly2,Ala3]hGLP-2(1-33)] | 0 | 18 | 44
H-HGDASFSDEMNTILDNLAARDFINWLIQTKITD-OH [[Gly2,Ala4]hGLP-2(1-33)] | 0 | 36 | 100
CCC[C@H](NC(=O)[C@@H](N)Cc1c[nH]cn1)C(=O)N[C@@H](CC(=O)O)C(=O)NCC(=O)N[C@@H](CO)C(=O)N[C@@H](Cc1ccccc1)C(=O)N[C@@H](CO)C(=O)N[C@@H](CC(=O)O)C(=O)N[C@@H](CCC(=O)O)C(=O)N[C@@H](CCSC)C(=O)N[C@@H](CC(N)=O)C(=O)N[C@H](C(=O)N[C@H](C(=O)N[C@@H](CC(C)C)C(=O)N[C@@H](CC(=O)O)C(=O)N[C@@H](CC(N)=O)C(=O)N[C@@H](CC(C)C)C(=O)N[C@@H](C)C(=O)N[C@@H](C)C(=O)N[C@@H](CCCNC(=N)N)C(=O)N[C@@H](CC(=O)O)C(=O)N[C@@H](Cc1ccccc1)C(=O)N[C@H](C(=O)N[C@@H](CC(N)=O)C(=O)N[C@@H](Cc1c[nH]c2ccccc12)C(=O)N[C@@H](CC(C)C)C(=O)N[C@H](C(=O)N[C@@H](CCC(N)=O)C(=O)N[C@H](C(=O)N[C@@H](CCCCN)C(=O)N[C@H](C(=O)N[C@H](C(=O)N[C@@H](CC(=O)O)C(=O)O)[C@@H](C)O)[C@@H](C)CC)[C@@H](C)O)[C@@H](C)CC)[C@@H](C)CC)[C@@H](C)CC)[C@@H](C)O [[Nval2]hGLP-2(1-33)] (H-H[Nva]DGSFSDEMNTILDNLAARDFINWLIQTKITD-OH) | 0 | – | 111
H-HHDGSFSDEMNTILDNLAARDFINWLIQTKITD-OH [[His2]hGLP-2(1-33)] | 0 | – | 0
H-HFDGSFSDEMNTILDNLAARDFINWLIQTKITD-OH [[Phe2]hGLP-2(1-33)] | 0 | – | 50
H-HEDGSFSDEMNTILDNLAARDFINWLIQTKITD-OH [[Glu2]hGLP-2(1-33)] | 0 | – | 93
